Where “and” joins values, the source holds several entries; their conditions need not be identical. Equal entries are not always repeated.
Tests used:
[1] = tested on: SiHa human cervical cancer xenograft; assay: Growth delay and survival of SiHa xenograft, PR-104 and docetaxel; assay type: in vivo, Rag-1^null mice
Description: Analysis: End-points will be expressed as TTE50, Median RTV^4 and plotted in Kaplan-Meier Plots and analysed by Log Rank P statistical test. Weight loss nadir will be compared between schedules.

[2] = tested on: H460 human lung cancer xenografts; assay: Growth delay and survival of H460 xenografts, PR-104, docetaxel and schedules thereof; assay type: in vivo, CD-1 nude mice
Procedure: Specific pathogen-free homozygous nu/nu (CD-1) nu/nu [NIH-III] (Charles River Laboratories, Wilmington, Mass.) were provided by the Animal Resources Unit (University of Auckland) at 7 to 9 weeks of age. Mice were housed in groups of 4-7 in a temperature-controlled room (22±2° C.) with a 12-hour light/dark cycle and were fed ad libitum water and a standard rodent diet (Harlan Teklad diet 2018i). All animals were uniquely identifiable by ear tag number. All animal protocols were approved by the Animal Ethics Committee of the University of Auckland (AEC approval C337).
A single cell suspension was prepared by trypsinisation (1× Trypsin/EDTA) from spinner culture, counted, and suspended in ∝MEM to give required cell concentration, as listed below. Mice were inoculated (100 μL) at a single subcutaneous site (right flank) using a 1 ml syringe with a 26 gauge needle.
Seven days post-inoculation, tumors were measured three times per week until they reached the treatment size (mean diameter 5.8-8.2 mm; average 7.0 mm). Mean tumor diameter was averaged from the longest diameter (length) multiplied by the perpendicular measurement (width). Tumor diameters were estimated when mean diameter was below 5 mm, and measured with electronic callipers when ≧5 mm.
Tumor volume was calculated using the formula:
where L=length and w=width in mm of the carcinoma.
Excess compound was discarded.
Tumor bearing mice were assigned randomly to treatment groups when tumor diameter reached treatment size. Animals were rejected if xenografts show evidence of: (i) attachment to underlying muscle (due to risk of local invasion), (ii) signs of ulceration, or (iii) indolent tumor growth. Drug administration begins on the day of assignment. In general, 0.7-0.8 of the inoculated population is assigned to the experiment. Drug administration was undertaken as outlined above.
During and after treatment, tumor size and body weights were measured regularly. Animals were culled if (i) the average diameter of the tumor exceeds 15 mm (survival end-point), (ii) body weight loss exceeds 15% of pre-treatment value, (iii) there is evidence of prolonged or excessive morbidity, or (iv) tumor ulceration occurred. Each experiment was terminated at day 120 after treatment initiation.
Kaplan-Meier plots were constructed and median survival was calculated (TTE50). The statistical significance of any differences in overall survival between treatment groups and control was analysed by Log Rank P statistical test. The log-rank test was calculated using XLStat Life (Kovach Computing Services Ltd). The statistic significance in overall survival between each treatment group and control was determined by testing the null hypothesis that the survival curves are identical in the two populations.
The time for individual tumors to increase in volume by 4 fold relative to treatment day-1 (relative tumor volume×4−RTV^4) was recorded. The median RTV^4 is calculated for each group and the difference in RTV^4 between control and treatment groups is described as the Tumor Growth Delay (TGD) in days. RTV^4 values notmalise for any bias in tumor treatment volume on day-1. The RTV^4 of each treatment group is tested for statistical difference from control group by unpaired t-test and Mann Whitney U test (means and medians, respectively).
In circumstances where long-term controls (LTCs) occur, an RTV^4 value equal to the total duration of the experiment is assigned for the purposes of statistical analysis (usually 120 days). Where one or more LTC is present the median RTV^4 of each treatment group is tested for statistical difference from control group by Mann Whitney U test only. The statistical analysis was conducted at a p level of 0.05 (two-tailed). SigmaStat v3.10 was used for the statistical analysis of RTV^4 values. SigmaPlot v9 was used for all graph plots.
Weight loss nadirs (time independent maxima) were recorded for each treatment group.

[3] = Rag-1 mice, PR-104 652 mg/kg, docetaxel 73 mg/kg, q2w×2
[4] = H460 xenograft, PR-104 652 mg/kg, docetaxel 73 mg/kg, q2w×2

## CC(=O)O[C@@]12CO[C@@H]1C[C@H](O)[C@@]1(C)C(=O)[C@H](O)C3=C(C)[C@@H](OC(=O)[C@H](O)[C@@H](NC(=O)OC(C)(C)C)c4ccccc4)C[C@@](O)([C@@H](OC(=O)c4ccccc4)[C@H]21)C3(C)C [Docetaxel, (2R,3S)-N-carboxy-3-phenylisoserine, N-tert-butyl ester, 13-ester with 5β-20-epoxy-1,2α,4,7β,10β,13α-hexahydroxytax-11-en-9-one 4-acetate 2-benzoate, trihydrate, reference compound]
[1]; Rag-1 mice
  activity against SiHa xenograft (in words): displayed activity
[1]; Rag-1 mice, 120 day experiment
  LTC (long term control): 0
[1]; Rag-1 mice, PR-104 652 mg/kg, docetaxel 73 mg/kg, i.p., q2w×2, trihydrate
  Weight Loss Nadir (%): −7.0±0.8%
[1]; [3]
  Median RTV^4: 44.5 days
  TTE50 (median time for tumor end-point to occur): 54 days
[1]; Rag-1 mice, PR-104 652 mg/kg, docetaxel 73 mg/kg, q2w×2, trihydrate
  TGD (relative gain in median RTV^4 versus control): 271% and 270.8%
[1]; Rag-1 mice, day of unscheduled death, trihydrate
  Day of death: 44 and 66
[1]; Rag-1 mice, versus control
  improvement in tumor growth delay: 32.5 days
[1]; Rag-1 mice, versus control (17 days)
  Gain TTE50 (improvement in median survival): 37 days
[1]; female Rag-1 mice, total dose PR-104 652 mg/kg, docetaxel 73 mg/kg, i.p., q2w×2
  Unscheduled deaths: 2
[2]; H460 xenograft, CD-1 nude mice, mean body weight loss nadir, PR-104 652 mg/kg, docetaxel 73 mg/kg, i.p., q2w×2, trihydrate
  Weight Loss Nadir (%): −4.2 ± 1.0%
[2]; H460 xenograft, female CD-1 nude mice, total dose PR-104 652 mg/kg, docetaxel 73 mg/kg, i.p., q2w×2
  Unscheduled deaths: 0
[2]; H460 xenograft, 120 day experiment, PR-104 652 mg/kg, docetaxel 73 mg/kg, q2w×2
  LTC (long term control, failed to reach end-point within duration of experiment): 0
[2]; [4]
  Median RTV^4 (median time for tumor volume to increase 4-fold): 8 days
  TGD (tumor growth delay; relative gain in median RTV^4 versus control): 0%
[2]; H460 xenograft, end-point >15 mm mean diameter, PR-104 652 mg/kg, docetaxel 73 mg/kg, q2w×2
  TTE50 (median time for tumor end-point to occur from day of treatment): 14 days
[2]; H460 xenograft, versus control (11 days), PR-104 652 mg/kg, docetaxel 73 mg/kg, q2w×2
  Gain TTE50 (improvement in median survival): 3 days
[2]; tumor growth delay and survival end-points
  activity against H460 xenograft (in words): refractory
